From PMC5655428, “Discovery and pharmacological characterization of a new class of prolyl-tRNA synthetase inhibitor for anti-fibrosis therapy” (PLoS ONE, 2017)

Experiments:
[1] = tested on: TGF-β-induced fibrotic genes expression in mouse ear skin; experiment: TGF-β-induced fibrotic gene expression in mouse ear, topical application; type: in vivo; conditions: for expression of fibrosis-related genes (Col1a1, Col1a2, α-Sma) in mouse ear: topical cream daily, 1 h before TGF-β 500 ng intradermal x5, T-3833261 0.01-0.1%, HF 0.01%
Experimental: Standard chow diet and water were available ad libitum.
A vehicle without compounds was applied to control mice. […] Topical application of compound was continued for 7 days.
Total RNA was isolated from in vivo samples using ISOGEN II (Nippongene) according to the manufacturer's instructions. In vitro RNA samples were prepared as mentioned above. High Capacity cDNA Reverse Transcription Kit (Life Technologies, Carlsbad, CA, USA) was used for cDNA synthesis. Real-time quantitative RT-PCR reactions were performed as a TaqMan method on a ViiA 7 real-Time PCR System (Life Technologies), using TaqMan Fast Advanced Master Mix (Lifer Technologies) with specific primers on TaqMan Gene Expression Assays (Life Technologies) according to the manufacturer's manual. FAM-probed primers were used: COL1A1, Hs00164004_m1; α-SMA/ACTA2, Hs00426835_g1; fibroblast growth factor 2 (FGF2), Hs00266645_m1; Smad specific E3 ubiquitin protein ligase 2 (SMURF2), Hs00224203_m1; DDIT3, Hs00358796_g1; and glyceraldehyde 3-phosphate dehydrogenase (GAPDH), 4326317E for human in vitro cell assay. FAM-probed and TAMRA-quenched primers (Sigma-Aldrich Japan, Tokyo, Japan) were used: Col1a1, NM_007742; type I collagen alpha 2 (Col1a2), NM_007743; α-Sma/Acta2, NM_007392; and Gapdh, NM_008084 for mouse in vivo assay (S1 Table). The relative mRNA level of the target genes was calculated by the comparative threshold cycle (Ct) method using GAPDH (Gapdh) as an internal control for normalization. The fold change in the expression of each target gene was calculated by the following formula: relative quantification (RQ) = 2^-ΔΔCt.

human skin fibroblast = experiment: Transcriptome analysis (AmpliSeq) and gene signature analysis; type: cell-based; conditions: 300 nM, 24 h; >1.2-fold change, FDR < 0.05
Experimental: The Ion AmpliSeq Transcriptome Human Gene Expression Kit (ThermoFisher, Waltham, MA, USA) enables the simultaneous measurement of the expression levels of over 20,000 human genes in a single assay. AmpliSeq human-transcriptome libraries were constructed and sequenced by using the Ion Proton platform, according to the manufacturer’s instructions. Briefly, total RNA was extracted from human skin fibroblast treated with compounds for 24 h using the RNeasy Mini Kit. Reverse transcription was performed on 10 ng of the prepared total RNA samples using the AmpliSeq Whole Transcriptome primers with the included SuperScript® VILO^TM cDNA Synthesis kit (Life Technologies). Amplicons were ligated to adapters, and the resulting libraries were purified using Agencourt AMPure XP reagents (Beckman Coulter, Brea, CA, USA) and diluted to the concentration of 75 pM. Templated libraries were sequenced with the Ion Proton sequencer (ThermoFisher). AmpliSeq sequencing data were analyzed using the Ion Torrent Mapping Alignment Program. Identification of differentially expressed genes (DEGs) and comparative gene signature analysis were done in NextBio (http://nextbio.com). Gene expression data was taken by using our ATP-competitive PRS inhibitor analog (IC50: < 3.0 nM). […]

[2] = mouse, in vivo
Experimental: The experimenters were blinded to the treatments given to the animals and to the biochemical and histological analyses and the data analyses. Eight-week-old C3H/He male mice (weighing 23~28 g, Japan SLC, Inc., Hamamatsu, Japan) were used for all the in vivo experiments. […] These animals were maintained on a 12/12 h light/dark cycle with constant temperature (23 ± 2°C) under specific pathogen-free conditions. Standard chow diet and water were available ad libitum.
After acclimatization for 1 weeks, animals were randomly divided according to body weight and treated for 3 to 5 consecutive days as follows. The ear and dorsal skin of mouse were intradermally injected with 20 μL (100 μL, dorsal skin) PBS or 500 ng TGF-β in PBS under anaesthesia with 3–4% sevoflurane. Injections were continued in this manner daily for 3 days (days 0, 1 and 2) or 5 days (days 0, 1, 2, 3 and 4). Treatment protocol included the daily topical application of T-3833261 or HF cream on the ear (40 μL/ear) 1 h before injections into the ear. A vehicle without compounds was applied to control mice. The topical material contained sorbitan sesquioleate (50 g), lanolin (50 g), liquid paraffin (250 g), propylene glycol (50 g), 90% lactic acid (1.5 g), T-3833261 (0.1, 0.3 and 1 g) or HF (0.1 g), and distilled water as the rest material. Topical application of compound was continued for 7 days. Mice were euthanized by cervical dislocation under sevoflurane anesthesia at 3 or 5 days after last TGF-β injection and the ear surrounding the TGF-β injection site was harvested with 8 μm biopsy punch under anesthesia.

27 kinases = experiment: kinase panel experiment; type: biochemical; conditions: almost no inhibitory activity, read-out: IC50 against 27 kinases

## O=C(CC1NCCCC1O)Cn1cnc2cc(Br)c(Cl)cc2c1=O (centres unmarked) [HF, Halofuginone, reference compound]
[1]
  expression of fibrosis-related genes (Col1a1, Col1a2, α-Sma) in mouse ear: prevented the skin fibrotic genes expression induced by TGF-β
Human skin fibroblast
  number of genes with altered expression levels compared to vehicle-treated cells: 8229 genes
[2]
  Body weight day 0: 22.5 ± 0.3 g
  Body weight day 7: 23.7 ± 0.3 g
  body weight of the mice after one week of continuous topical application: did not change

## Cn1cc(-c2cc(F)cc(CNC(=O)c3nccc4nc(C5CCCC5)[nH]c34)c2)cn1 [T-3833261, 2-Cyclopentyl-N-(3-fluoro-5-(1-methyl-1H-pyrazol-4-yl)benzyl)-3H-imidazo[4,5-c]pyridine-4-carboxamide]
27 kinases
  IC50: > 1 µM
[1]; 0.1% formulation of T-3833261, topical, mouse ear
  activity on fibrotic gene expression relative to HF formulation: comparable activity to a 0.01% HF formulation
[1]
  expression of fibrosis-related genes (Col1a1, Col1a2, α-Sma) in mouse ear: reduced expression of these fibrotic genes in a dose-dependent manner
